Measurements reported in publication PMC10949855 (Journal of veterinary pharmacology and therapeutics, 2022).
“Also recorded” adds a separate entry of the source. Read-outs that look alike come from different tables or passages of the source.

Assays:
dogs [1] = details: cited from earlier work
dogs [2] = details: cited from earlier work; remark: listed apart in the source
dogs [3] = details: SC, ref Pircio et al., 1976; cited from earlier work
[4] = tested on: dogs undergoing soft tissue surgery; details: 0.4 mg/kg IV, ref Gomes et. al., 2020; cited from earlier work
[5] = after SC and IM administration at 0.25 mg/kg, dogs; ref Pfeffer et al., 1980; cited from earlier work
healthy dogs = experiment: Adverse effects observed after administration; details: SC 0.4 mg/kg
[6] = Pharmacokinetics of butorphanol in plasma; details: for AUC(0-inf): AUCinf
[7] = 0.4 mg/kg IV, ref Wegner et al., 2008
[8] = both, Beagle, dog, in vivo, iv, 0.4 mg/kg, IV bolus 0.4 mg/kg IV, geometric mean, n=6
[9] = both, Beagle, dog, in vivo, sc, 0.4 mg/kg
[10] = both, Beagle, dog, in vivo, sc, 0.4 mg/kg, SC 0.4 mg/kg, geometric mean, n=6

## Oc1ccc2c(c1)[C@@]13CCCC[C@@]1(O)[C@@H](C2)N(CC1CCC1)CC3 [butorphanol]
Dogs [1]; [7]
  thermal antinociception compared to hydromorphone at 0.1 mg/kg IV: equianalgesic peak effects and duration
  time of peak effect, thermal antinociception: 1 h
Dogs [1]; IV, ref Wegner et al 2008
  time of peak antinociceptive effect after IV administration: 60 min
Dogs [2]; 0.4 mg/kg IV, 30 minutes (latest time point assessed), ref Houghton, et. al., 1991
  antinociception, colonic distension model: significant effects; also recorded: significant antinociception
Dogs [2]; 0.8 mg/kg SC, 45 minutes, ref Sawyer, et. al. 1991
  antinociception, colonic distension model: did produce a significant effect; also recorded: significant antinociception
Dogs [2]; doses up to 0.4 mg/kg SC, 45 minutes, ref Sawyer et al., 1991
  response, colonic distension nociceptive model: failed to produce a significant response
Dogs [3]
  dose of maximum effect on miosis: 0.25 mg/kg
[4]
  analgesia in clinical trial: insufficient analgesia
[5]
  CMAX range: 25 to 33 ng/mL
  terminal half-life: 1.5 to 1.7 h
Healthy dogs
  hypersalivation: 2/6
[6]; IV CRI: 0.2 mg/kg IV loading dose then 0.2 mg/kg/hr for 8 hours, geometric mean, n=5
  Css (steady state plasma concentration): 43.1 ng/mL
[6]; IV bolus 0.4 mg/kg IV, geometric mean, n=6
  AUC extrapolated: 1.0%
[6]; SC 0.4 mg/kg, geometric mean, n=6
  AUC extrapolated: 2.5%
[6]; both, Beagle, dog, in vivo, half-life, dogs, overall statement of abstract
  half-life: ~1.5 h
[6]; both, Beagle, dog, in vivo, iv, 0.4 mg/kg
  concentration at 5 min: 144 ng/mL
[6]; [8]
  AUC(0-inf): 143 ng·h/mL
  MRT: 1.26 h
[6]; both, Beagle, dog, in vivo, iv, 0.4 mg/kg, C0, IV bolus 0.4 mg/kg IV, geometric mean, n=6
  C0: 183 ng/mL
[6]; both, Beagle, dog, in vivo, iv, 0.4 mg/kg, Cl, IV bolus 0.4 mg/kg IV, geometric mean, n=6
  clearance: 46.5 mL/min/kg
[6]; both, Beagle, dog, in vivo, iv, 0.4 mg/kg, T ½ λz, IV bolus 0.4 mg/kg IV, geometric mean, n=6
  half-life: 1.47 h
[6]; both, Beagle, dog, in vivo, iv, 0.4 mg/kg, Vss, IV bolus 0.4 mg/kg IV, geometric mean, n=6
  Vd: 3.51 L/kg
[6]; both, Beagle, dog, in vivo, iv, 0.4 mg/kg, Vz, IV bolus 0.4 mg/kg IV, geometric mean, n=6
  Vd: 5.91 L/kg
[6]; both, Beagle, dog, in vivo, iv, 0.4 mg/kg, λz, IV bolus 0.4 mg/kg IV, geometric mean, n=6
  k el: 0.000131 s⁻¹
[6]; both, Beagle, dog, in vivo, iv, T ½ λz, IV CRI: 0.2 mg/kg IV loading dose then 0.2 mg/kg/hr for 8 hours, geometric mean, n=5
  half-life: 1.42 h
[6]; both, Beagle, dog, in vivo, iv, λz, IV CRI: 0.2 mg/kg IV loading dose then 0.2 mg/kg/hr for 8 hours, geometric mean, n=5
  k el: 0.000136 s⁻¹
[6]; [9]
  Cmax: 74.2 ng/mL
  TMAX: 0.21 h
[6]; [10]
  AUC(0-inf): 123 ng·h/mL
  MRT: 2.09 h
[6]; both, Beagle, dog, in vivo, sc, 0.4 mg/kg, T ½ λz, SC 0.4 mg/kg, geometric mean, n=6
  half-life: 1.83 h
[6]; both, Beagle, dog, in vivo, sc, 0.4 mg/kg, Λz, SC 0.4 mg/kg, geometric mean, n=6
  k el: 0.000105 s⁻¹
